Entries after “also recorded” stand apart in the source; their conditions may differ.
How the values were obtained:
LLC-PK1 cells = experiment: TUNEL apoptosis assay (apoptotic index) in cultured LLC-PK1 cells; assay type: cell-based, pig; settings: for AI: 2 h; for Apoptotic activity (in words): substance alone
Experimental: Cell Culture and Assay Protocol. LLC-PK1, a pig kidney epithelial cell line was plated at a density of 10^3 cells per well into eight-well Permanox plastic chamber slides (NUNC, Naperville, Ill.). The cells were cultured at 37° C. in 5% CO2 in humidified incubators and grown for 3 days to 70-80% confluency in DMEM-F12 that was supplemented with 10% fetal calf serum, 7.5% sodium bicarbonate, 15 mM HEPES, 200 mM L-Glutamate, 100 u penicillin and 0.1 ug/ml streptomycin (Life Technologies, Gaithersburg, Md.). The culture fluid was then removed and cells were exposed to plasma from control individuals, Alzheimer's disease patients or multi-infarct dementia patients diluted 1:5 in fresh DMEM-F12 media, supplemented as above, for 2 h at 37° C. The cells were then rinsed in PBS, and fixed in 4% formaldehyde in PBS for 10 min., permeabilized with 0.5% Triton X-100 (Sigma Chemical CO., St. Louis, Mo.) for 5 min. and washed in 4 changes of distilled water. A positive control was obtained by exposing cells to 0.6 mM H2O2 diluted in DMEM-F12 for 2 h.
Apoptosis Assay (TUNEL): Nuclear DNA fragmentation consistent with apoptosis was determined by the method of TdT-mediated dUTP-biotin nick-end labeling (TUNEL) (Y. Gavrieli et al., J. Cell. Biol. 119:493-501, 1992). The ApopDetek cell death assay kit (Enzo, Farmingdale, N.Y.) was used utilizing terminal deoxynucleotide transferase to incorporate Bio-16-dUTP onto the 3′-OH termini in the DNA of apoptotic cells, subsequent binding with streptavidin-horseradish peroxidase, and visualization after conversion of the substrate and chromagen (hydrogen peroxide and aminoethylcarbazole) into a localized brick red precipitate. A blue counter stain was also used. Slides were then observed for morphologically irregular and condensed nuclei which contain dark red precipitate to indicate TUNEL-positive cells using a Nikon (Nikon, Inc., Melville, N.Y.) Optiphot microscope. Five to six random field totaling approximately 1,000 to 1,500 cells were counted per slide. Apoptotic index (AI), defined as the percent of cells undergoing apoptosis, is calculated by dividing the number of positive nuclei by the total number of nuclei counted multiplied by 100. […]
Effect of Protein Synthesis on Apoptotic Activity. LLC-PK1 cells were exposed to Alzheimer's disease and control plasma in the absence and presence of cycloheximide (0.2-200 uM) (Sigma, St. Louis, Mo.). Apoptotic index was measured in these cells by TUNEL assay.
Effect of Calcium Depletion on Factor Activity. The TUNEL assay was performed in the usual manner except for substituting DMEM-F12 with calcium-free DMEM, supplemented with dialyzed 10% fetal calf serum (Life Technologies, Grand Island, N.Y.) and 0.6 mM EGTA to chelate calcium. Dialyzed Alzheimer's disease and control plasma were then added to the calcium-free media for 2 h at 37° C. and a TUNEL assay performed.
Contribution of Known Apoptotic Inducers. To test the possibility that the apoptotic factor in Alzheimer's disease plasma was β amyloid, TNF-α or myeloma light chain, the TUNEL assay was repeated as above after a 2 h incubation at 37° C. with […] β amyloid (Peninsula Laboratories, Inc., Belmont, Calif.), 5 pM-3 nM TNF-α (Quantikine, Minneapolis, Minn.) and 3-60 ug λ myeloma light chain, kindly supplied by Dr. Vecihi Batuman, Tulane University School of Medicine, New Orleans, La. To eliminate the possibility that a protease in Alzheimer's disease plasma is responsible for the apoptotic activity, the effect of a broad spectrum protease inhibitor cocktail (Boehringer Mannheim) was studied on apoptotic index using the TUNEL assay. LCC-PK1 cells were incubated with Alzheimer's disease plasma with and without the inhibitor cocktail and assayed as detailed above. This cocktail inhibits a large spectrum of serine, cysteine, and metalloproteases as well as calpains. It consists of aprotinin, leupeptin, EDTA, and pefabloc.

[1] = system: human kidney proximal tubule cells; experiment: Apoptosis of human kidney proximal tubule cells in culture; assay type: cell-based
Experimental: Apoptosis Assay (TUNEL): Nuclear DNA fragmentation consistent with apoptosis was determined by the method of TdT-mediated dUTP-biotin nick-end labeling (TUNEL) (Y. Gavrieli et al., J. Cell. Biol. 119:493-501, 1992). The ApopDetek cell death assay kit (Enzo, Farmingdale, N.Y.) was used utilizing terminal deoxynucleotide transferase to incorporate Bio-16-dUTP onto the 3′-OH termini in the DNA of apoptotic cells, subsequent binding with streptavidin-horseradish peroxidase, and visualization after conversion of the substrate and chromagen (hydrogen peroxide and aminoethylcarbazole) into a localized brick red precipitate. A blue counter stain was also used. Slides were then observed for morphologically irregular and condensed nuclei which contain dark red precipitate to indicate TUNEL-positive cells using a Nikon (Nikon, Inc., Melville, N.Y.) Optiphot microscope. Five to six random field totaling approximately 1,000 to 1,500 cells were counted per slide. Apoptotic index (AI), defined as the percent of cells undergoing apoptosis, is calculated by dividing the number of positive nuclei by the total number of nuclei counted multiplied by 100.

With TNF-α the AI (LLC-PK1 cells; doses as high as 50 pM) was 6%.

`COc1ccc2c(c1)c(CC(=O)O)c(C)n2C(=O)c1ccc(Cl)cc1` [Indomethacin] was tested, and the “Effect on apoptosis (in words)” value ([1]; simultaneous addition of Indomethacin and Prostaglandin D2 Synthase) was “did not increase apoptosis above baseline” and the “Effect on apoptosis (in words)” value ([1]; substance alone) was “inhibited apoptosis to baseline”.

With `CCCCC[C@H](O)/C=C/[C@H]1C(=O)C[C@H](O)[C@@H]1C/C=C\CCCC(=O)O` [Prostaglandin D, prostaglandin D2] the “Effect on apoptosis (in words)” value ([1]; substance alone) was “did not increase apoptosis”.

In the case of `CCCCC[C@H](O)C/C=C1/C(=O)C=C[C@@H]1C/C=C\CCCC(=O)O` [-Δ^12Prostaglandin J2], the “Apoptotic activity (in words)” value (LLC-PK1 cells) is reported as “increases the rate of apoptosis”, the “Effect on apoptosis (in words)” value ([1]; addition of Δ12Prostaglandin J2 to Indomethacin) is reported as “increased apoptosis” and the “Effect on apoptosis (in words)” value ([1]; combination of Indomethacin, Prostaglandin D2 Synthase and Δ12Prostaglandin J2) is reported as “increased apoptosis”. The “Effect on apoptosis (in words)” value ([1]; substance alone) was “induces apoptosis; also recorded: increased apoptosis to the same degree as prostaglandin D2 synthase” and the “Effect on apoptosis (in words)” value ([1]; substance alone, listed as -Δ^12prostaglandin J2) was “induces apoptosis”.

For `CCCCC[C@H](O)/C=C/[C@@H]1[C@@H](C/C=C\CCCC(=O)O)[C@@H]2C[C@H]1OO2` [Prostaglandin H, prostaglandin H2], the “Effect on apoptosis (in words)” value ([1]; substance alone) was “did not increase apoptosis”.

In the case of `C[C@@H]1C[C@@H]([C@H](O)CC2CC(=O)NC(=O)C2)C(=O)[C@@H](C)C1` [Cycloheximide, cycloheximide], the “Effect on apoptosis by Alzheimer's disease plasma (in words)” value (LLC-PK1 cells; 200 uM cycloheximide) is reported as “inhibition of apoptosis”, the “AI (%)” value (LLC-PK1 cells; cycloheximide 200 uM, cells exposed to Alzheimer's plasma) is reported as 7.7 ± 1.6% and the “AI (%)” value (LLC-PK1 cells; cycloheximide 200 uM, cells exposed to control plasma) is reported as 6.3 ± 1.5%. For the same molecule, the “AI (%)” value (LLC-PK1 cells; cycloheximide 0.2-20 uM, cells exposed to Alzheimer's plasma) was 28.7 ± 4.0%, the “AI (%)” value (LLC-PK1 cells; cycloheximide 0.2-20 uM, cells exposed to control plasma) was 5.0 ± 0.0% and the “Effect on apoptosis by Alzheimer's disease plasma (in words)” value (LLC-PK1 cells; lower concentrations of cycloheximide) was “no inhibition of apoptosis”.

In the case of Prostaglandins E [Prostaglandin E], the “Effect on apoptosis (in words)” value ([1]; substance alone) is reported as “did not increase apoptosis”.

With `CCN1C(=O)C=CC1=O` [N-Ethyl Maleimide] the “Effect on apoptosis (in words)” value ([1]; deactivation/inhibition of Prostaglandin D2 Synthase by N-Ethyl Maleimide) was “inhibited apoptosis”.

For β-amyloid, the AI (LLC-PK1 cells; 50 uM in media) was 6.1±3.1% and the “Apoptotic activity (in words)” value (LLC-PK1 cells) was “No detectable apoptotic activity”.

B1: α1 microglobulin: protein co-found in the 32 Kd band from urine of a renal salt wasting patient (protein, UniProt P02760 20-203, looked up)
Alpha-1-microglobulin: GPVPTPPDNIQVQENFNISRIYGKWYNLAIGSTCPWLKKIMDRMTVSTLVLGEGATEAEISMTSTRWRKGVCEETSGAYEKTDTDGKFLYHKSKWNITMESYVVHTNYDEYAIFLTKKFSRHHGPTITAKLYGRAPQLRETLLQDFRVVAQGVGIPEDSIFTMADRGECVPGEQEPEPILIPRV
modifications: Alpha-1-microglobulin
notes: protein co-found in the 32 Kd band from urine of a renal salt wasting patient
B1 was tested, and the “Apoptotic activity (in words)” value (LLC-PK1 cells) was “no apoptotic activity”.

B2: Prostaglandin D2 Synthase: enzyme that converts prostaglandin H2 to prostaglandin D2; identified apoptotic factor (protein, UniProt P41222 23-190, looked up)
Prostaglandin-H2 D-isomerase: APEAQVSVQPNFQQDKFLGRWFSAGLASNSSWLREKKAALSMCKSVVAPATDGGLNLTSTFLRKNQCETRTMLLQPAGSLGSYSYRSPHWGSTYSVSVVETDYDQYALLYSQGSKGPGEDFRMATLYSRTQTPRAELKEKFTAFCKAQGFTEDTIVFLPQTDKCMTEQ
For B2, the “Effect on apoptosis (in words)” value ([1]; substance alone) was “increased apoptosis” and the “Increase of apoptosis above control” value ([1]; substance alone) was “about four times above control”.

From patent publication US6458549B2, “Methods of diagnosing renal salt wasting syndrome and Alzheimer's disease and methods of treating the same” (Winthrop-University Hospital, priority 1998, dated 2002)
